Measured values from US12351571B2, “Substituted quinoxaline compounds as inhibitors of FGFR tyrosine kinases” (ARRAY BIOPHARMA INC., priority 2018, dated 2025).

Key:
dephosphorylated FGFR1 = dephosphorylated FGFR1 (Homo sapiens (Human), UniProt P11362); assay: FGFR Enzyme Binding Assay (HTRF tracer displacement), FGFR1; conditions: 5 nM dephosphorylated FGFR1, 60 minute incubation at 22° C.; read-out: FGFR1 Enz Binding IC50
Experimental: The potency of compounds inhibiting human isoforms of FGFR kinase was determined using Life Technologies' Homogeneous Time Resolved Fluorescence (HTRF)-based binding assay technology. An incubation was conducted with either 5 nM dephosphorylated FGFR1 (Array Biopharma, p1702; SEQ ID NO: 1, amino acids 458 to 765, dephosphorylated by co-expression with PTP1b (protein tyrosine phosphatase 1B)), 5 nM dephosphorylated FGFR2 (Life Technologies, Cat. No. PV4106 that had been dephosphorylated with Lambda protein phosphatase (New England Biolabs, cat #P0753)) or 5 nM phosphorylated FGFR3 (Array Biopharma, p1836; SEQ ID NO: 5, amino acids 449 to 759), 50 nM Kinase Tracer 236 (Life Technologies Cat. No. PR9078A), 2 nM Biotin-anti-6HIS (Life Technologies Cat. No. PV6090) and 2 nM Europium-Streptavidin (Life Technologies Cat. No. PV6025) along with test compound in a buffer consisting of 50 mM HEPES ((4-(2-hydroxyethyl)-1-piperazineethanesulfonic acid, pH 7.5), 5 mM MgCl2, 0.005% Triton X-100, 1 mM DTT, 1 mM NaVO4 and 2% DMSO in a final volume of 12 μL Compounds were typically prepared as a 3-fold or 4-fold serial dilution in DMSO and added to the assay to give the appropriate final concentration. After a 60 minute incubation at 22° C., the extent of tracer displacement was determined using a PerkinElmer EnVision multimode plate reader via HTRF dual wavelength detection, and the percent of control (POC) was calculated using a ratiometric emission factor. One hundred POC was determined using no test compound, and 0 POC was determined in the presence of 1 μM of an appropriate control inhibitor. A 4-parameter logistic curve was fit to the POC values as a function of the concentration of compound, and the IC50 value was the point where the best-fit curve crossed 50 POC.

FGFR1 = FGFR1 (Homo sapiens (Human), UniProt P11362); assay: LC/MS FGFR1 kobs assay (covalent modification); type: biochemical; conditions: 500 nM FGFR1, 3 μM compound
Experimental: (§1) The LC/MS FGFR1 and FGFR3 kobs assays were conducted as follows. 500 nM FGFR1 (Array BioPharma construct p1702; SEQ ID NO: 1, amino acids 458-765) or FGFR3 (Array BioPharma construct p1700; SEQ ID NO: 5, amino acids 449-759) were incubated with 3 μM compound in 25 mM HEPES (4-(2-hydroxyethyl)-1-piperazineethanesulfonic acid), pH 7.4, 5 mM MgCl2, 150 mM NaCl, 0.5 mM TCEP (tris(2-carboxyethyl) phosphine), and 2% DMSO in a total volume of 20 μL. At each time point, the reaction was quenched with 20 μL of 0.4% formic acid. The extent of protein modification by each compound was determined by LC/MS on an Agilent Technologies 6520 Q-TOF LC/MS. Protein signals were then automatically deconvoluted using Agilent Masshunter software. Deconvoluted mass signals were exported to Tibco Spotfire data analysis program for further processing and normalization.
(§2) Data analysis included five steps. First, the signals for the “DMSO Controls” were analyzed to determine the percent of signal associated with unmodified FGFR1 or FGFR3 at each time point. Next, the percent of the signal associated with the covalent modification was determined. Third, the average nonmodified “DMSO Control” signal was used to normalize the modified protein signals at each time point. The percent of unmodified protein was fit to an exponential decay model where A0 is the Percent Unmodified at the start of the reaction, and kobs is the observed rate constant over the time period.

human wild type FGFR3 = human wild type FGFR3 (Homo sapiens (Human), UniProt P22607); assay: FGFR3 pERK Cell Assay; type: cell-based; conditions: HEK-293 cells, 1 hour compound, 100 ng/ml human FGF-acidic; maximum concentration 5 μM
Experimental: HEK-293 cells transfected with dox-inducible human wild type FGFR3 (SEQ ID NO: 5) were plated in a collagen or poly-D-lysine coated 96 well flat bottom plates at 4×10^5 cells/well in complete DMEM medium containing 10% FBS and 1 μg/ml doxycycline and allowed to attach for 24 h at 37° C., 5% CO2. Cells were treated with compound using 1:3 serial dilutions with a maximum final concentration of 5 μM. Compound was incubated on cells for 1 hour at 37° C., 5% CO2. Cells were then stimulated with a final concentration of 100 ng/ml human FGF-acidic (R&D Systems Cat number 232-FA/CF) for 5 minutes at 37° C., 5% CO2. Medium was removed, and cells were lysed with lysis buffer containing phosphatase and protease inhibitors. Phospho ERK1/2 was measured using the Meso Scale Discovery sandwich assay (Meso Scale Discovery cat. no. K151DWD). The assay captures phospho ERK1/2 and detects with a sulfo-tagged total ERK1/2 antibody. The chemiluminescent signal was read on the Sector Imager Plate reader. 100 POC was determined using no test compounds and 0 POC was determined using a control compound. The POC values were fit to a 4-parameter logistic curve as a function of the concentration of the compound, and the IC50 value is the point where the curve crosses 50 POC.

FGFR3 = FGFR3 (Homo sapiens (Human), UniProt P22607); assay: LC/MS FGFR3 kobs assay (covalent modification); type: biochemical; conditions: 500 nM FGFR3, 3 μM compound
Experimental: as §1, §2

[1] = molecular target: recombinant human FGFR2 cytoplasmic domain (Homo sapiens (Human), UniProt P21802); assay: FGFR Enzyme Activity Assay (LanthaScreen TR-FRET), FGFR2; type: biochemical; conditions: 15 μM ATP, 20 minute incubation; read-out: FGFR2 Enz FRET IC50
Experimental: FGFR2 kinase activity was measured by the Invitrogen LanthaScreen™ Assay technology which directly measures the amount of substrate phosphorylation by TR-FRET using a flourescently-labeled peptide and Europium-labeled antibody. Briefly, 200 pM His-tagged recombinant human FGFR2 cytoplasmic domain (amino acids 403-822) (Life Technologies Cat. No. PR5332A) was incubated with 100 nM Alexa Fluor® 647-Poly-GT Peptide Substrate (Life Technologies Cat. No. PV5836) and 15 μM ATP along with test compound in a buffer consisting of 250 mM HEPES, 25 mM MgCl2, 0.05% TritonX-100, pH 7.5, and 2% DMSO. Compounds were typically prepared in a threefold serial dilution in DMSO and added to the assay to give the appropriate final concentration. After a 20 minute incubation at 22° C., an equal volume of 2 nM LanthaScreen® Eu-PY20 Antibody (Life Technologies Cat. No. PV5691) and 10 mM EDTA were added to quench the kinase reaction and start the detection reaction. After an additional 60 minute incubation at 22° C., the reaction was measured using a PerkinElmer EnVision multimode plate reader via TR-FRET dual wavelength detection, and the percent of control (POC) calculated using a ratiometric emission factor. 100 POC was determined using no test compounds and 0 POC was determined using no enzyme. The POC values were fit to a 4-parameter logistic curve as a function of the concentration of the compound, and the IC50 value is the point where the curve crosses 50 POC.

Sequence of human wild type FGFR3 (P22607 23-806): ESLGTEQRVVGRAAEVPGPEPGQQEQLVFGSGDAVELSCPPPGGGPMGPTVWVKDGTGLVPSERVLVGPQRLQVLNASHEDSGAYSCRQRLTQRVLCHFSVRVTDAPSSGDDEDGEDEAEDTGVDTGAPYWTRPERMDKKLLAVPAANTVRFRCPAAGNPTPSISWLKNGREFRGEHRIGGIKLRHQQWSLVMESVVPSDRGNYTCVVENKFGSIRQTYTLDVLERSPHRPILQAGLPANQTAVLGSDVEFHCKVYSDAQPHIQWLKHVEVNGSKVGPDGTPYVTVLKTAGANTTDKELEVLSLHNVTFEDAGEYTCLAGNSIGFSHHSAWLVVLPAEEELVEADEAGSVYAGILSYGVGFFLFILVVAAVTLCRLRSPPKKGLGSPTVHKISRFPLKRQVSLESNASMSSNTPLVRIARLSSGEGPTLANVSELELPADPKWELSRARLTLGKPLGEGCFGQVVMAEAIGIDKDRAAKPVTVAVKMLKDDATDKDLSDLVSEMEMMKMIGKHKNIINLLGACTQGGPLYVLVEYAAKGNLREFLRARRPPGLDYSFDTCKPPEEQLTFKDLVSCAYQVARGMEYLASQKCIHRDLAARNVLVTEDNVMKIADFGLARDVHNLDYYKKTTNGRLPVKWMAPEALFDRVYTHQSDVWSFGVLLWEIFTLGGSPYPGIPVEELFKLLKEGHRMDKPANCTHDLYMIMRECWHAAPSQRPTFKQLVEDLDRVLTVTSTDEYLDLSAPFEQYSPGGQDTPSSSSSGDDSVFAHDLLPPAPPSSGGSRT
Sequence of FGFR3 (P22607 449-759): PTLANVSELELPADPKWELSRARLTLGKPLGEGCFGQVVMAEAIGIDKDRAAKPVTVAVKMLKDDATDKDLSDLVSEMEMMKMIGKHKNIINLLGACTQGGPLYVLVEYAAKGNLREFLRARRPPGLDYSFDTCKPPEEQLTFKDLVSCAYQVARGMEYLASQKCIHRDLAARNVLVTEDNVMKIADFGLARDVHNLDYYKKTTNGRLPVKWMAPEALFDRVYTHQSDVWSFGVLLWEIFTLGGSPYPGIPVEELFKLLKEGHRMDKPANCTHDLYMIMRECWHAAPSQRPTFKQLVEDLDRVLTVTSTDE
Sequence of dephosphorylated FGFR1 (P11362 458-765): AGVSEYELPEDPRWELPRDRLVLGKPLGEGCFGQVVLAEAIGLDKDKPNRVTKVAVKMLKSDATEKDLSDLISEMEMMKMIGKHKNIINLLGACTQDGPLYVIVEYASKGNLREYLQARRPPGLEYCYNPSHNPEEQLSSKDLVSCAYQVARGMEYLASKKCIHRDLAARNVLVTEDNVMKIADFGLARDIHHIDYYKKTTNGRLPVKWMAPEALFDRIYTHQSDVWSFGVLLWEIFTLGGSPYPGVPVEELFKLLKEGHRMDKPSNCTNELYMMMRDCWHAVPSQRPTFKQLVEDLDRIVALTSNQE
Sequence of FGFR1 (P11362 458-765): as above
Sequence of recombinant human FGFR2 cytoplasmic domain (P21802 402-821): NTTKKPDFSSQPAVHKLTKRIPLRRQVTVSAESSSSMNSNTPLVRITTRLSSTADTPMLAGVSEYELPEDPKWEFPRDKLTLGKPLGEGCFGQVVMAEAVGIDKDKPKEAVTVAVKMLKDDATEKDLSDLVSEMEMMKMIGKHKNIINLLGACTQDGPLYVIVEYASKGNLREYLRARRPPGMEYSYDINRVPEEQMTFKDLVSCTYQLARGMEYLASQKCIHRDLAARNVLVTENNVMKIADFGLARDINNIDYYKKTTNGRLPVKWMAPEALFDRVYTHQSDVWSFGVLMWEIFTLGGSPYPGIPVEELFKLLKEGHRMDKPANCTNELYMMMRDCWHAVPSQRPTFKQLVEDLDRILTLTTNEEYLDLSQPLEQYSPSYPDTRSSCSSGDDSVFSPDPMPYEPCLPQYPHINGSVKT

| IC50 (dephosphorylated FGFR1) [nM] | FGFR1 Enz kobs (FGFR1) [min⁻¹] | IC50 (human wild type FGFR3) [nM] | FGFR3 Enz kobs (FGFR3) [min⁻¹] | IC50 [1] [nM] | SMILES |
| --- | --- | --- | --- | --- | --- |
| 13 | 0.00264 | 12 | 0.00987 | 12 | C=CC(=O)N1CC(O)(C(=O)N2CCC(n3cc(-c4cnc5ccc(N(C)c6cc(OC)cc(OC)c6)cc5n4)cn3)CC2)C1 [Example 27, 1-(3-(4-(4-(7-((3,5-dimethoxyphenyl)(methyl)amino)quinoxalin-2-yl)-1H-pyrazol-1-yl)piperidine-1-carbonyl)-3-hydroxyazetidin-1-yl)prop-2-en-1-one] |
| 37 | 0.00288 | 153 | 0.01414 | 121 | C=CC(=O)N1CC(O)(C(=O)N2CCC(n3cc(-c4cnc5ccc(Nc6cc(OC)cc(OC)c6)cc5n4)cn3)CC2)C1 [Example 26, 1-(3-(4-(4-(7-((3,5-dimethoxyphenyl)amino)quinoxalin-2-yl)-1H-pyrazol-1-yl)piperidine-1-carbonyl)-3-hydroxyazetidin-1-yl)prop-2-en-1-one] |
| 55 | 0.00339 | 114 | 0.03902 | 166 | COc1cc(Nc2ccc3ncc(-c4cnn([C@@H]5CCN(C(=O)C6(F)CN(C(=O)/C=C/CN(C)C)C6)C5)c4)nc3c2)cc(OC)c1 [Example 19, (R,E)-1-(3-(3-(4-(7-((3,5-dimethoxyphenyl)amino)-quinoxalin-2-yl)-1H-pyrazol-1-yl)pyrrolidine-1-carbonyl)-3-fluoro-azetidin-1-yl)-4-(dimethyl-amino)but-2-en-1-one] |
| 22 | 0.00127 | 44 | 0.00945 | 11 | C=CC(=O)N1CC(C(=O)N2CCC(n3cc(-c4cnc5ccc(Nc6cc(OC)cc(OC)c6)cc5n4)cn3)CC2)C1 [Example 1, 1-(3-(4-(4-(7-((3,5-dimethoxyphenyl)amino)quinoxalin-2-yl)-1H-pyrazol-1-yl)piperidine-1-carbonyl)azetidin-1-yl)prop-2-en-1-one] |
| 34 | 0.00172 | 24 | 0.01591 | 159 | C=CC(=O)N1CC(CN2CCC(n3cc(-c4cnc5ccc(Nc6cc(OC)cc(OC)c6)cc5n4)cn3)CC2)C1 [Example 30, 1-(3-((4-(4-(7-((3,5-dimethoxyphenyl)amino)quinoxalin-2-yl)-1H-pyrazol-1-yl)piperidin-1-yl)methyl)azetidin-1-yl)prop-2-en-1-one] |
| 50 | 0.0025 | 25 | 0.01671 | 333 | C=CC(=O)N1CC(CN2CCC(n3cc(-c4cnc5ccc(Nc6cc(OC)cc(OC)c6)cc5n4)cn3)CC2)(OC)C1 [Example 29, 1-(3-((4-(4-(7-((3,5-dimethoxyphenyl)amino)quinoxalin-2-yl)-1H-pyrazol-1-yl)piperidin-1-yl)methyl)-3-methoxyazetidin-1-yl)prop-2-en-1-one] |

Second part, the molecule before the results:

| SMILES | IC50 (dephosphorylated FGFR1) [nM] | FGFR1 Enz kobs (FGFR1) [min⁻¹] | IC50 (human wild type FGFR3) [nM] | FGFR3 Enz kobs (FGFR3) [min⁻¹] | IC50 [1] [nM] |
| --- | --- | --- | --- | --- | --- |
| C#CCN(c1cc(OC)cc(OC)c1)c1ccc2ncc(-c3cnn(C4CCN(C(=O)C5(F)CN(C(=O)/C=C/CN(C)C)C5)CC4)c3)nc2c1 [Example 28, (E)-1-(3-(4-(4-(7-((3,5-dimethoxyphenyl)(prop-2-yn-1-yl)amino)quinoxalin-2-yl)-1H-pyrazol-1-yl)piperidine-1-carbonyl)-3-fluoroazetidin-1-yl)-4-(dimethylamino)but-2-en-1-one] | 6 | 0.01569 | 8 | 0.078 | 5 |
| COc1cc(Nc2ccc3ncc(-c4cnn(C5CCN(C(=O)C6(F)CN(C(=O)/C=C/CN(C)C)C6)CC5)c4C)nc3c2)cc(OC)c1 [Example 17, (E)-1-(3-(4-(4-(7-((3,5-dimethoxyphenyl)amino)-quinoxalin-2-yl)-5-methyl-1H-pyrazol-1-yl)piperi-dine-1-carbonyl)-3-fluoroazetidin-1-yl)-4-(dimethylamino)but-2-en-1-one] | 102 | 0.00842 | 61 | 0.08024 | 118 |
| COc1cc(Nc2ccc3ncc(-c4cnn([C@@H]5CCN(C(=O)C6CN(C(=O)/C=C/CN(C)C)C6)C5)c4)nc3c2)cc(OC)c1 [Example 20, (R,E)-1-(3-(3-(4-(7-((3,5-dimethoxyphenyl)amino)-quinoxalin-2-yl)-1H-pyrazol-1-yl)pyrrolidine-1-carbonyl)azetidin-1-yl)-4-(dimethylamino)but-2-en-1-one] | 53 | 0.00141 | 2740 | 0.00892 | 107 |
| C=CC(=O)N1CC(C(=O)N2CCN(c3ccc(-c4cnc5ccc(Nc6cc(OC)cc(OC)c6)cc5n4)cn3)CC2)C1 [Example 5, 1-(3-(4-(5-(7-((3,5-dimethoxyphenyl)amino)-quinoxalin-2-yl)pyridin-2-yl)piperazine-1-carbonyl)azetidin-1-yl)-prop-2-en-1-one] | 623 | 0.0011 | 317 | 0.01486 | 365 |
